Test: HILIC, Waters Atlantis Premier BEH Z-HILIC, 100 × 2.1 mm, 1.7 µm, 40 °C, 0.15 mL/min, estimated dead time 1.5 min; A: water + 20 mM ammonium carbonate + 5 µM medronic acid; B: 10% water + 90% acetonitrile + 2 mM ammonium carbonate + 0.5 µM medronic acid; gradient (min/%B) 0/95 18/60 18.1/20 21.5/20 22/95 23.5/95 25.5/95
Conditions: stereoisomer not certain

| SMILES | LC retention time [min] |
| --- | --- |
| O=C(O)CCC(=O)C(=O)O [2-Oxoglutaric acid] | 9.44 |
| O=C(O)CCC(O)C(=O)O (stereo not given) [2-hydroxy glutaric acid] | 10 |
| Nc1ncnc2c1ncn2C1OC(COP(=O)(O)OP(=O)(O)O)C(O)C1O (stereo not given) [ADP] | 12.2 |
| Nc1ncnc2c1ncn2C1OC(COP(=O)(O)O)C(O)C1O (stereo not given) [AMP] | 9.98 |
| Nc1ncnc2c1ncn2C1OC(COP(=O)(O)OP(=O)(O)OP(=O)(O)O)C(O)C1O (stereo not given) [ATP] | 14.3 |
| CC(=O)SCCNC(=O)CCNC(=O)C(O)C(C)(C)COP(=O)(O)OP(=O)(O)OCC1OC(n2cnc3c(N)ncnc32)C(O)C1OP(=O)(O)O (stereo not given) [Acetyl-CoA] | 10.9 |
| Nc1ncnc2c1ncn2C1OC(CO)C(O)C1O (stereo not given) [Adenosine] | 4.12 |
| O=C(O)CCCCC1SCC2NC(=O)NC21 (stereo not given) [Biotin] | 4.54 |
| C[N+](C)(C)CC(O)CC(=O)[O-] (stereo not given) [Carnitine] | 10.4 |
| O=C(O)CC(O)(CC(=O)O)C(=O)O [Citric acid] | 14.8 |
| CC(C)(COP(=O)(O)OP(=O)(O)OCC1OC(n2cnc3c(N)ncnc32)C(O)C1OP(=O)(O)O)C(O)C(=O)NCCC(=O)NCCS (stereo not given) [CoenzymeA] | 12.9 |
| Cc1cc2nc3c(=O)[nH]c(=O)nc-3n(CC(O)C(O)C(O)COP(=O)(O)OP(=O)(O)OCC3OC(n4cnc5c(N)ncnc54)C(O)C3O)c2cc1C (stereo not given) [FAD] | 7.66 |
| O=C(CO)C(O)C(O)C(O)COP(=O)(O)O (stereo not given) [Fructose 6-phosphate] | 12.2 |
| O=P(O)(O)OCC1OC(O)(COP(=O)(O)O)C(O)C1O (stereo not given) [Fructose-1,6-bisphosphate] | 16.9 |
| Nc1nc2c(ncn2C2OC(COP(=O)(O)OP(=O)(O)OP(=O)(O)O)C(O)C2O)c(=O)[nH]1 (stereo not given) [GTP] | 17.2 |
| O=P(O)(O)OCC1OC(O)C(O)C(O)C1O (stereo not given) [Glucose-6-phosphate] | 13.3 |
| NC(CCC(=O)O)C(=O)O (stereo not given) [Glutamic acid] | 10.3 |
| NC(=O)CCC(N)C(=O)O (stereo not given) [Glutamine] | 11 |

| SMILES | LC retention time [min] |
| --- | --- |
| O=P(O)(O)OCC(O)CO (stereo not given) [Glycerol-3-phosphate] | 10.9 |
| OCC1OC(O)C(O)C(O)C1O (stereo not given) [Hexose] | 7.88 |
| O=C(O)CC(C(=O)O)C(O)C(=O)O (stereo not given) [Isocitric acid] | 14.6 |
| CCC(C)C(N)C(=O)O (stereo not given) [Isoleucine] | 6.62 |
| CC(O)C(=O)O (stereo not given) [Lactic Acid] | 3.43 |
| CC(C)CC(N)C(=O)O (stereo not given) [Leucine] | 6.18 |
| NC(=O)C1=CN(C2OC(COP(=O)(O)OP(=O)(O)OCC3OC(n4cnc5c(N)ncnc54)C(O)C3O)C(O)C2O)C=CC1 (stereo not given) [NADH] | 9.07 |
| NC(=O)C1=CN(C2OC(COP(=O)(O)OP(=O)(O)OCC3OC(n4cnc5c(N)ncnc54)C(OP(=O)(O)O)C3O)C(O)C2O)C=CC1 (stereo not given) [NADPH] | 15 |
| NC(=O)c1ccc[n+](C2OC(COP(=O)(O)OP(=O)(O)OCC3OC(n4cnc5c(N)ncnc54)C(OP(=O)(O)O)C3O)C(O)C2O)c1 (stereo not given) [NADP] | 14.4 |
| NC(=O)c1ccc[n+](C2OC(COP(=O)(O)OP(=O)(O)OCC3OC(n4cnc5c(N)ncnc54)C(O)C3O)C(O)C2O)c1 (stereo not given) [NAD] | 10.9 |
| C=C(OP(=O)(O)O)C(=O)O [PEP] | 14.4 |
| O=C(O)C(CO)OP(=O)(O)O (stereo not given) [Phosphoglyceric acid A] | 13.4 |
| O=C(O)CCC(=O)O [Succinic Acid] | 10.1 |
| O=C(CO)COP(=O)(O)O [Triose phosphate] | 10.8 |
| CC(=O)NC1C(OP(=O)(O)OP(=O)(O)OCC2OC(n3ccc(=O)[nH]c3=O)C(O)C2O)OC(CO)C(O)C1O (stereo not given) [UDP-GlcNAc] | 10.5 |
| CCC(=O)OC(CC(=O)[O-])C[N+](C)(C)C (stereo not given) [carnitine-C3] | 6.75 |
| O=C1CC(C(=O)O)NC(=O)N1 (stereo not given) [dihydroorotic acid] | 4.65 |
